According to ChEMBL document CHEMBL5050844 (2019):

Legend:
[1] = Induction of anti-CD3 antibodies-stimulated human exhausted T cell activation assessed fold increase in IL-2 secretion measured by ELISA assay; type: functional, T cell line; also: reference of the scale not given here
[2] = Induction of anti-CD3 antibodies-stimulated human CD4+ T cell activation at 1.11 uM assessed fold increase in CD69 expression measured by flow cytometry analysis; type: functional, T cell line; also: reference of the scale not given here
[3] = Induction of anti-CD3/CD28 antibodies-stimulated human anergic T cell activation at 10 uM assessed fold increase in IFN-gamma secretion measured by ELISA assay; type: functional, T cell line
[4] = Induction of anti-CD3 antibodies-stimulated human exhausted CD8+ T cell activation assessed fold increase in CTLA4 expression measured by flow cytometry analysis; type: functional, T cell line; also: reference of the scale not given here
[5] = Induction of anti-CD3/CD28 antibodies-stimulated human T cell activation at 10 uM assessed fold increase in IFN-gamma secretion measured by ELISA assay; type: functional, T cell line
[6] = Induction of activation of human CD56+ CD3- NK cells co-cultured with human K562 cells in 1:1 ratio and assessed as increase in TNF-alpha secretion at 0.625 uM measured by ELISA assay; type: functional, Natural killer cell
[7] = Induction of anti-CD3 antibodies-stimulated human T cell activation at 1.11 uM assessed fold increase in TNF-alpha secretion measured by ELISA assay; type: functional, T cell line; also: reference of the scale not given here
[8] = Induction of anti-CD3/CD28 antibodies-stimulated human T cell activation at 1.11 uM assessed fold increase in IFN-gamma secretion measured by ELISA assay; type: functional, T cell line
[9] = Induction of anti-CD3/CD28 antibodies-stimulated human CD8+ T cell activation at 1.11 uM assessed fold increase in cell proliferation measured by flow cytometry analysis; type: functional, T cell line
B cell = test: Induction of anti-IgM-stimulated human CD20+ B cell activation at 10 to 1000 uM assessed as increase in CD69 expression measured as mean fluorescence intensity AUC by flow cytometry analysis; type: functional, cell-based; conditions: dose 10-1000 µM
[10] = Induction of anti-CD3/CD28 antibodies-stimulated human T cell activation at 10 uM assessed fold increase in TNF-alpha secretion measured by ELISA assay; type: functional, T cell line
[11] = Induction of anti-CD3/CD28 antibodies-stimulated human CD4+ T cell activation at 1.11 uM assessed fold increase in cell proliferation measured by flow cytometry analysis; type: functional, T cell line
[12] = Induction of anti-CD3 antibodies-stimulated human CD8+ T cell activation at 10 uM assessed fold increase in cell proliferation measured by flow cytometry analysis; type: functional, T cell line; also: reference of the scale not given here
[13] = Induction of activation of human CD56+ CD3- NK cells co-cultured with human K562 cells in 1:1 ratio and assessed as increase in IFN-gamma secretion at 10 uM measured by ELISA assay; type: functional, Natural killer cell
[14] = Induction of anti-CD3/CD28 antibodies-stimulated human CD8+ T cell activation at 10 uM assessed fold increase in cell proliferation measured by flow cytometry analysis; type: functional, T cell line
[15] = Induction of anti-CD3/CD28 antibodies-stimulated human anergic T cell activation at 1.11 uM assessed fold increase in IFN-gamma secretion measured by ELISA assay; type: functional, T cell line
[16] = Induction of anti-CD3 antibodies-stimulated human T cell activation at 1 uM assessed fold increase in IL-2 secretion measured by ELISA assay; type: functional, T cell line; also: reference of the scale not given here
[17] = Induction of anti-CD3 antibodies-stimulated human T cell activation at 8 uM assessed fold increase in IL-2 secretion measured by ELISA assay; type: functional, T cell line; also: reference of the scale not given here
[18] = Induction of anti-CD3/CD28 antibodies-stimulated human T cell activation at 0.3 uM assessed fold increase in CD25 expression measured by ELISA assay; type: functional, T cell line
[19] = Induction of anti-CD3 antibodies-stimulated human CD8+ T cell activation at 1.11 uM assessed fold increase in CD69 expression measured by flow cytometry analysis; type: functional, T cell line; also: reference of the scale not given here
[20] = Induction of anti-CD3 antibodies-stimulated human T cell activation at 10 uM assessed fold increase in IFN-gamma secretion measured by ELISA assay; type: functional, T cell line; also: reference of the scale not given here
[21] = Induction of anti-CD3 antibodies-stimulated human T cell activation at 1.11 uM assessed fold increase in GM-CSF secretion measured by ELISA assay; type: functional, T cell line; also: reference of the scale not given here
[22] = Induction of activation of human CD56+ CD3- NK cells co-cultured with human K562 cells in 1:1 ratio and assessed as increase in TNF-alpha secretion at 10 uM measured by ELISA assay; type: functional, Natural killer cell
[23] = Induction of allogenic human T cell activation at 10 uM assessed fold increase in cell proliferation; type: functional, T cell line
[24] = Induction of anti-CD3/CD28 antibodies-stimulated human CD4+ T cell activation at 10 uM assessed fold increase in CD69 expression measured by flow cytometry analysis; type: functional, T cell line
[25] = Induction of anti-CD3 antibodies-stimulated human T cell activation at 1.11 uM assessed fold increase in IFN-gamma secretion measured by ELISA assay; type: functional, T cell line; also: reference of the scale not given here
[26] = Induction of anti-CD3 antibodies-stimulated human T cell activation at 1 uM assessed fold increase in CD25 expression measured by ELISA assay; type: functional, T cell line; also: reference of the scale not given here
[27] = Induction of anti-CD3/CD28 antibodies-stimulated human CD8+ T cell activation at 1.11 uM assessed fold increase in CD69 expression measured by flow cytometry analysis; type: functional, T cell line
[28] = Induction of anti-CD3/CD28 antibodies-stimulated human CD4+ T cell activation at 10 uM assessed fold increase in cell proliferation measured by flow cytometry analysis; type: functional, T cell line
[29] = Induction of anti-CD3 antibodies-stimulated human CD4+ T cell activation at 10 uM assessed fold increase in CD69 expression measured by flow cytometry analysis; type: functional, T cell line; also: reference of the scale not given here
[30] = Induction of anti-CD3/CD28 antibodies-stimulated human T cell activation at 4 uM assessed fold increase in IL-2 secretion measured by ELISA assay; type: functional, T cell line
[31] = Induction of anti-CD3/CD28 antibodies-stimulated human anergic T cell activation at 0.37 uM assessed fold increase in IFN-gamma secretion measured by ELISA assay; type: functional, T cell line
[32] = Induction of activation of human CD56+ CD3- NK cells co-cultured with human K562 cells in 1:1 ratio and assessed as increase in TNF-alpha secretion at 2.5 uM measured by ELISA assay; type: functional, Natural killer cell
[33] = Induction of anti-CD3 antibodies-stimulated human T cell activation at 8 uM assessed fold increase in CD25 expression measured by ELISA assay; type: functional, T cell line; also: reference of the scale not given here
[34] = Induction of anti-CD3 antibodies-stimulated human CD8+ T cell activation at 10 uM assessed fold increase in CD69 expression measured by flow cytometry analysis; type: functional, T cell line; also: reference of the scale not given here
[35] = Induction of anti-CD3/CD28 antibodies-stimulated human CD4+ T cell activation at 1.11 uM assessed fold increase in CD69 expression measured by flow cytometry analysis; type: functional, T cell line
[36] = Induction of anti-CD3 antibodies-stimulated human T cell activation at 10 uM assessed fold increase in GM-CSF secretion measured by ELISA assay; type: functional, T cell line; also: reference of the scale not given here
[37] = Induction of activation of human CD56+ CD3- NK cells co-cultured with human K562 cells in 1:1 ratio and assessed as increase in IFN-gamma secretion at 2.5 uM measured by ELISA assay; type: functional, Natural killer cell

| SMILES | fold change (FC) [1] | fold change (FC) [2] | fold change (FC) [3] | fold change (FC) [4] | fold change (FC) [5] | fold change (FC) [6] | fold change (FC) [7] | fold change (FC) [8] | fold change (FC) [9] | AUC (B cell) | fold change (FC) [10] | fold change (FC) [11] | fold change (FC) [12] | fold change (FC) [13] | fold change (FC) [14] | fold change (FC) [15] | fold change (FC) [16] | fold change (FC) [17] | fold change (FC) [18] | fold change (FC) [19] | further results |
| --- | --- | --- | --- | --- | --- | --- | --- | --- | --- | --- | --- | --- | --- | --- | --- | --- | --- | --- | --- | --- | --- |
| C[C@H](Cc1nncn1C)c1cccc(N2Cc3c(cc(CN4CC(C)(O)C4)cc3C(F)(F)F)C2=O)c1 | 2.51 | >1.601 | >4.01 | >1.61 | >4 | 1.01 | 1.51 | 2.01 | 3.01 | 0.5 | 2.01 | >4 | >4 | >=5 | >4 | >4.01 | 0.151 | >=0.201 | 1.01 | 1.201 | fold change (FC) [20]: <=2; fold change (FC) [21]: 2.01; fold change (FC) [22]: 2.01; fold change (FC) [23]: 2.01; fold change (FC) [24]: 1.401; fold change (FC) [25]: <=2; fold change (FC) [26]: >=1.001; fold change (FC) [27]: 1.201; fold change (FC) [28]: >4; fold change (FC) [29]: >1.601; fold change (FC) [30]: >=7.5; fold change (FC) [31]: <=2.5; fold change (FC) [32]: 2.01; fold change (FC) [33]: >=1.001; fold change (FC) [34]: 1.401; fold change (FC) [35]: 1.401; fold change (FC) [36]: 2.01; fold change (FC) [37]: 2.01 |
| Cc1cc(C(=O)Nc2cccc([C@H](C)Cc3nncn3C)c2)nc(C2CC2)n1 | <=2.5 | <=1.2 | <=2.5 | >1.61 | >4 | 1.01 | 1.51 | 2.01 | <=2 | > 1.51 | >4 | <=2 | >4 | 2.01 | >4 | <=2.5 | >=0.201 | >=0.201 | 1.51 | <=1.2 | fold change (FC) [20]: >4; fold change (FC) [21]: 2.01; fold change (FC) [22]: 2.01; fold change (FC) [23]: 2.01; fold change (FC) [24]: >1.601; fold change (FC) [25]: 2.01; fold change (FC) [26]: >=1.001; fold change (FC) [27]: <=1.2; fold change (FC) [28]: >4; fold change (FC) [29]: >1.601; fold change (FC) [30]: >=7.5; fold change (FC) [31]: <=2.5; fold change (FC) [32]: 2.01; fold change (FC) [33]: >=1.001; fold change (FC) [34]: 1.401; fold change (FC) [35]: <=1.2; fold change (FC) [36]: 2.01; fold change (FC) [37]: 2.01 |
| C[C@H](Cc1nncn1C)c1cccc(N2Cc3c(cc(CN4CC(O)C4)cc3C(F)(F)F)C2=O)c1 | >3.01 | 1.201 | >4.01 | >1.61 | >4 | 1.01 | <=1.5 | 2.01 | <=2 | 0.5 | 1.51 | <=2 | <=2 | 2.01 | 2.01 | 2.51 | >=0.201 | >=0.201 | 1.01 | <=1.2 | fold change (FC) [20]: <=2; fold change (FC) [21]: <=1.5; fold change (FC) [22]: 2.01; fold change (FC) [23]: 2.01; fold change (FC) [24]: 1.201; fold change (FC) [25]: <=2; fold change (FC) [26]: >=1.001; fold change (FC) [27]: <=1.2; fold change (FC) [28]: 3.01; fold change (FC) [29]: 1.201; fold change (FC) [30]: >=7.5; fold change (FC) [31]: <=2.5; fold change (FC) [32]: 2.01; fold change (FC) [33]: >=1.001; fold change (FC) [34]: <=1.2; fold change (FC) [35]: <=1.2; fold change (FC) [36]: <=1.5; fold change (FC) [37]: 1.01 |
